How the values were obtained:
Test in all cases: Test D pre-/postemergence herbicide test
[1] = tested on: pigweed; format: in vivo, Amaranthus retroflexus; settings: for Plant response rating: Postemergence, Pigweed, scale 0 to 100; for Plant response rating, Pigweed: Preemergence, scale 0 to 100 (0 no effect, 100 complete control)
Text: (§1) Seeds of plant species selected from bluegrass (annual bluegrass, Poa annua), blackgrass (Alopecurus myosuroides), canarygrass (littleseed canarygrass, Phalaris minor), chickweed (common chickweed, Stellaria media), galium (catchweed bedstraw, Galium aparine), bromegrass, downy (downy bromegrass, Bromus tectorum), field poppy (Papaver rhoeas), field violet (Viola arvensis), foxtail, green (green foxtail, Setaria viridis), deadnettle (henbit deadnettle, Lamium amplexicaule), ryegrass, Italian (Italian ryegrass, Lolium multiflorum), kochia (Kochia scoparia), lambsquarters (Chenopodium album), oilseed rape (Brassica napus), pigweed (Amaranthus retroflexus), chamomile (scentless chamomile, Matricaria inodora), Russian thistle (Salsola kali), speedwell (bird's-eye speedwell, Veronica persica), barley, spring (spring barley, Hordeum vulgare), wheat, spring (spring wheat, Triticum aestivum), buckwheat, wild (wild buckwheat, Polygonum convolvulus), mustard, wild (wild mustard, Sinapis arvensis), oat, wild (wild oat, Avena fatua), radish, wild (wild radish, Raphanus raphanistrum), […]), barley, winter (winter barley, Hordeum vulgare), and wheat, winter (winter wheat, Triticum aestivum) were planted into a silt loam soil and treated preemergence with test chemicals formulated in a non-phytotoxic solvent mixture which included a surfactant. At the same time, these species were planted in pots containing Redi-Earth® planting medium (Scotts Company, 14111 Scottslawn Road, Marysville, Ohio 43041) comprising spaghnum peat moss, vermiculite, wetting agent and starter nutrients and treated with postemergence applications of the test chemicals formulated in the same manner. Plants ranged in height from 2 to 18 cm (1- to 4-leaf stage). Treated plants and controls were maintained in a controlled growth environment for 7 to 21 days after which time all species were compared to controls and visually evaluated. Plant response ratings, summarized in Table D, are based on a scale of 0 to 100 where 0 is no effect and 100 is complete control. A dash (-) response means no test result.

[2] = tested on: blackgrass; format: in vivo, Alopecurus myosuroides; settings: for Plant response rating: Blackgrass, scale 0 to 100; for Plant response rating, Blackgrass: scale 0 to 100 (0 no effect, 100 complete control)
Text: as §1

[3] = tested on: bluegrass; format: in vivo, Poa annua; settings: for Plant response rating: Bluegrass, scale 0 to 100; for Plant response rating, Bluegrass: scale 0 to 100 (0 no effect, 100 complete control)
Text: as §1

[4] = tested on: mustard, wild; format: in vivo, Sinapis arvensis; settings: for Plant response rating: Mustard, Wild, scale 0 to 100; for Plant response rating, Mustard, Wild: scale 0 to 100 (0 no effect, 100 complete control)
Text: as §1

[5] = tested on: buckwheat, wild; format: in vivo, Polygonum convolvulus; settings: for Plant response rating: Buckwheat, Wild, scale 0 to 100; for Plant response rating, Buckwheat, Wild: scale 0 to 100 (0 no effect, 100 complete control)
Text: as §1

`O=C1NCC(c2ccc(Cl)c(F)c2)C1C(=O)Nc1cccc(F)c1F` (stereo not drawn) [Compound 52] gave a Plant response rating ([1]; 16 g ai/ha) of 0, a Plant response rating ([1]; 31 g ai/ha) of 0 and a Plant response rating ([1]; 62 g ai/ha) of 0. For the same compound, the Plant response rating ([1]; 125 g ai/ha) was 30, the Plant response rating ([1]; 250 g ai/ha) was 40 and the “Plant response rating, Pigweed” value ([1]; 62 g ai/ha) was 10. The “Plant response rating, Pigweed” value ([1]; 125 g ai/ha) was 10, the “Plant response rating, Pigweed” value ([1]; 16 g ai/ha) was 0 and the “Plant response rating, Pigweed” value ([1]; 31 g ai/ha) was 10. For the same compound, the “Plant response rating, Pigweed” value ([1]; 250 g ai/ha) was 15, the Plant response rating ([2]; Postemergence, 16 g ai/ha) was 0 and the Plant response rating ([2]; Postemergence, 31 g ai/ha) was 0. For the same compound, the Plant response rating ([2]; Postemergence, 62 g ai/ha) was 0, the Plant response rating ([2]; Postemergence, 125 g ai/ha) was 0 and the Plant response rating ([2]; Postemergence, 250 g ai/ha) was 0. For the same compound, the “Plant response rating, Blackgrass” value ([2]; Preemergence, 62 g ai/ha) was 0, the “Plant response rating, Blackgrass” value ([2]; Preemergence, 16 g ai/ha) was 0 and the “Plant response rating, Blackgrass” value ([2]; Preemergence, 31 g ai/ha) was 0. It also gave a Plant response rating ([2]; Preemergence, 125 g ai/ha) of 0, a Plant response rating ([2]; Preemergence, 250 g ai/ha) of 0 and a Plant response rating ([3]; Postemergence, 16 g ai/ha) of 0. For the same compound, the Plant response rating ([3]; Postemergence, 31 g ai/ha) was 0, the Plant response rating ([3]; Postemergence, 62 g ai/ha) was 0 and the Plant response rating ([3]; Postemergence, 125 g ai/ha) was 0. For the same compound, the Plant response rating ([3]; Postemergence, 250 g ai/ha) was 0, the “Plant response rating, Bluegrass” value ([3]; Preemergence, 62 g ai/ha) was 0 and the “Plant response rating, Bluegrass” value ([3]; Preemergence, 16 g ai/ha) was 0. The “Plant response rating, Bluegrass” value ([3]; Preemergence, 31 g ai/ha) was 0, the Plant response rating ([3]; Preemergence, 125 g ai/ha) was 0 and the Plant response rating ([3]; Preemergence, 250 g ai/ha) was 20. For the same compound, the Plant response rating ([4]; Postemergence, 16 g ai/ha) was 0, the Plant response rating ([4]; Postemergence, 31 g ai/ha) was 10 and the Plant response rating ([4]; Postemergence, 62 g ai/ha) was 20. The Plant response rating ([4]; Postemergence, 125 g ai/ha) was 20, the Plant response rating ([4]; Postemergence, 250 g ai/ha) was 25 and the “Plant response rating, Mustard, Wild” value ([4]; Preemergence, 62 g ai/ha) was 0. The “Plant response rating, Mustard, Wild” value ([4]; Preemergence, 16 g ai/ha) was 0, the “Plant response rating, Mustard, Wild” value ([4]; Preemergence, 31 g ai/ha) was 0 and the Plant response rating ([4]; Preemergence, 125 g ai/ha) was 0. For the same compound, the Plant response rating ([4]; Preemergence, 250 g ai/ha) was 10, the Plant response rating ([5]; Postemergence, 16 g ai/ha) was 0 and the Plant response rating ([5]; Postemergence, 31 g ai/ha) was 0. The Plant response rating ([5]; Postemergence, 62 g ai/ha) was 0, the Plant response rating ([5]; Postemergence, 125 g ai/ha) was 0 and the Plant response rating ([5]; Postemergence, 250 g ai/ha) was 0. The “Plant response rating, Buckwheat, Wild” value ([5]; Preemergence, 62 g ai/ha) was 0, the “Plant response rating, Buckwheat, Wild” value ([5]; Preemergence, 16 g ai/ha) was 0 and the “Plant response rating, Buckwheat, Wild” value ([5]; Preemergence, 31 g ai/ha) was 0. The Plant response rating ([5]; Preemergence, 125 g ai/ha) was 10 and the Plant response rating ([5]; Preemergence, 250 g ai/ha) was 10.

Compound `O=C1NCC(c2ccc(F)c(F)c2)C1C(=O)Nc1ccccc1C(F)(F)F` (racemic) [Compound 6] has a Plant response rating ([1]; 16 g ai/ha) of 0, a Plant response rating ([1]; 31 g ai/ha) of 10 and a Plant response rating ([1]; 62 g ai/ha) of 10. For the same compound, the Plant response rating ([1]; 125 g ai/ha) was 20, the Plant response rating ([1]; 250 g ai/ha) was 20 and the “Plant response rating, Pigweed” value ([1]; 62 g ai/ha) was 0. For the same compound, the “Plant response rating, Pigweed” value ([1]; 125 g ai/ha) was 0, the “Plant response rating, Pigweed” value ([1]; 16 g ai/ha) was 0 and the “Plant response rating, Pigweed” value ([1]; 31 g ai/ha) was 0. The “Plant response rating, Pigweed” value ([1]; 250 g ai/ha) was 0, the Plant response rating ([2]; Postemergence, 16 g ai/ha) was 0 and the Plant response rating ([2]; Postemergence, 31 g ai/ha) was 0. The Plant response rating ([2]; Postemergence, 62 g ai/ha) was 5, the Plant response rating ([2]; Postemergence, 125 g ai/ha) was 5 and the Plant response rating ([2]; Postemergence, 250 g ai/ha) was 10. The “Plant response rating, Blackgrass” value ([2]; Preemergence, 62 g ai/ha) was 0, the “Plant response rating, Blackgrass” value ([2]; Preemergence, 16 g ai/ha) was 0 and the “Plant response rating, Blackgrass” value ([2]; Preemergence, 31 g ai/ha) was 0. It also gave a Plant response rating ([2]; Preemergence, 125 g ai/ha) of 0, a Plant response rating ([2]; Preemergence, 250 g ai/ha) of 0 and a Plant response rating ([3]; Postemergence, 16 g ai/ha) of 0. For the same compound, the Plant response rating ([3]; Postemergence, 31 g ai/ha) was 0, the Plant response rating ([3]; Postemergence, 62 g ai/ha) was 0 and the Plant response rating ([3]; Postemergence, 125 g ai/ha) was 0. For the same compound, the Plant response rating ([3]; Postemergence, 250 g ai/ha) was 0, the “Plant response rating, Bluegrass” value ([3]; Preemergence, 62 g ai/ha) was 0 and the “Plant response rating, Bluegrass” value ([3]; Preemergence, 16 g ai/ha) was 0. The “Plant response rating, Bluegrass” value ([3]; Preemergence, 31 g ai/ha) was 0, the Plant response rating ([3]; Preemergence, 125 g ai/ha) was 0 and the Plant response rating ([3]; Preemergence, 250 g ai/ha) was 0. It also gave a Plant response rating ([4]; Postemergence, 16 g ai/ha) of 0, a Plant response rating ([4]; Postemergence, 31 g ai/ha) of 0 and a Plant response rating ([4]; Postemergence, 125 g ai/ha) of 0. For the same compound, the Plant response rating ([4]; Postemergence, 250 g ai/ha) was 0, the “Plant response rating, Mustard, Wild” value ([4]; Preemergence, 62 g ai/ha) was 0 and the “Plant response rating, Mustard, Wild” value ([4]; Preemergence, 16 g ai/ha) was 0. The “Plant response rating, Mustard, Wild” value ([4]; Preemergence, 31 g ai/ha) was 0, the Plant response rating ([4]; Preemergence, 125 g ai/ha) was 10 and the Plant response rating ([4]; Preemergence, 250 g ai/ha) was 20. It also gave a Plant response rating ([5]; Postemergence, 16 g ai/ha) of 0, a Plant response rating ([5]; Postemergence, 31 g ai/ha) of 0 and a Plant response rating ([5]; Postemergence, 62 g ai/ha) of 0. The Plant response rating ([5]; Postemergence, 125 g ai/ha) was 0, the Plant response rating ([5]; Postemergence, 250 g ai/ha) was 10 and the “Plant response rating, Buckwheat, Wild” value ([5]; Preemergence, 62 g ai/ha) was 0. The “Plant response rating, Buckwheat, Wild” value ([5]; Preemergence, 16 g ai/ha) was 0, the “Plant response rating, Buckwheat, Wild” value ([5]; Preemergence, 31 g ai/ha) was 0 and the Plant response rating ([5]; Preemergence, 125 g ai/ha) was 0. The Plant response rating ([5]; Preemergence, 250 g ai/ha) was 0.

Reference: patent publication US10294202B2, “Pyrrolidinones as herbicides” (FMC Corporation, priority 2013, dated 2019)
